According to paper PMC10288505, “Photoswitchable Calixarene Activators for Controlled Peptide Transport across Lipid Membranes” (Journal of the American Chemical Society, 2023):

Columns and labels:
R8 = assay: Indicator displacement assay with host:LCG reporter pair, guest R8; assay type: binding; conditions: association constant, competitive dye displacement with LCG, 5 mM phosphate buffer pH 7.3; only the lower limit can be estimated
Source text: The binding affinity of the anionic calixarene activators toward cationic peptides was investigated using a small library of highly hydrophilic oligoarginines, from 3 to 8 residues. These peptides are not able to spontaneously transverse zwitterionic artificial membranes in vesicle assays, which allows the accurate evaluation of the calixarenes 1 and 2 as counterion activators without interferences from the transport of the peptide alone.[43]−[45] First, the formation of host–guest complexes between 1/2 and the selected peptides was verified by indicator displacement assays using lucigenin (LCG) as the fluorescent indicator.[46] As previously reported for other sulfonatocalixarene derivatives,[46] the formation of host–guest binding pairs between calixarenes 1/2 in the E- and Z-forms and LCG results in significant static fluorescence quenching (see Figure 2A and Figures S26 and S27). Quantitative analysis of the fluorescence titration data using a 1:1 host:guest binding model allows the determination of the respective binding constants (K) reported in Table 1. As can be observed, both 1/2 display high affinity for the LCG dye, on the 10^7 M^–1 range, which seems to be independent of the nature and conformation of the azobenzene arm. […] The host:LCG binding pairs were then employed in the above-mentioned indicator displacement assays to investigate the binding affinity of oligoarginines toward 1 and 2 (see Figure 2B and Figures S29–S33).
The binding affinities of the counterion activators and peptide complexes were analyzed by indicator displacement assays. […] Firstly, the affinity for LCG was calculated for each of the activators, by titrations followed by fluorescence spectroscopy leading to almost full quenching of the emission. […]
Figure S26 - Fluorescence titration of the lucigenin dye with increasing concentrations of A) E-1 and B) Z–1 in water (5 mM phosphate buffer pH 7.3). […]

HeLa cells = assay: MTT viability assay; assay type: cell-based; conditions: 24 h of incubation, 4-parameters logistic fit, triplicate, read-out: IC50 cytotoxicity
Protocol: Success in artificial vesicle assays encouraged us to conduct transport experiments of fluorescently labeled peptides in living cells (Figure 5). We first employed confocal fluorescence microscopy to evaluate counterion activator 2 for the intracellular transport of a carboxytetramethylrhodamine-labeled R8 peptide (TAMRA-R8) into the cytosol of HeLa cells. Cationic peptides usually remain trapped inside the endosomes when incubated with cells at low μM concentrations.[32],[44] […] The cytometry experiments validated the E isomer selective transport and indicated a four-fold intracellular delivery enhancement (Figure 5C and Figure S52). […]
measured on a Guava easyCyte BG HT collecting the emission at 583/26 nm (Yellow-G channel), using InCyte v3.2 (GuavaSoft, Millipore). Cells with typical FSC and SSC parameters were selected and the mean fluorescence intensity was calculated for each sample. Each condition was measured in quadruplicate. […]
Afterwards, samples were removed and replaced with 100 µL of fresh complete DMEM supplemented with 0.5 mg/mL MTT. […] The absorbance at 570 nm was measured with a plate reader (Tecan Infinite F200Pro) and the data normalized to the value of untreated cells (100% viability), after blank subtraction (cells previously treated with Triton X-100). Each condition was measured in triplicate. […]

Structure (SMILES)	Apparent affinity constant K for R8 (R8)	IC50 (HeLa cells) [µM]
O=S(=O)([O-])c1cc2c(O)c(c1)Cc1cc(S(=O)(=O)[O-])cc(c1O)Cc1cc(S(=O)(=O)[O-])cc(c1OCCCCCCOc1ccc(/N=N/c3ccccc3)cc1)Cc1cc(S(=O)(=O)[O-])cc(c1O)C2.[Li+].[Li+].[Li+].[Li+] [E-1]	>5 × 10^8 ^a M^–1	–
CCCCc1ccc(/N=N/c2ccc(OCCCOc3c4cc(S(=O)(=O)[O-])cc3Cc3cc(S(=O)(=O)[O-])cc(c3O)Cc3cc(S(=O)(=O)[O-])cc(c3O)Cc3cc(S(=O)(=O)[O-])cc(c3O)C4)cc2)cc1.[Li+].[Li+].[Li+].[Li+] [E-2]	>5 × 10^8 ^a M^–1	16.9
CCCCc1ccc(/N=N\c2ccc(OCCCOc3c4cc(S(=O)(=O)[O-])cc3Cc3cc(S(=O)(=O)[O-])cc(c3O)Cc3cc(S(=O)(=O)[O-])cc(c3O)Cc3cc(S(=O)(=O)[O-])cc(c3O)C4)cc2)cc1.[Li+].[Li+].[Li+].[Li+] [Z-2]	–	19.2
